Test results taken from US20090069623A1, “METHODS AND COMPOSITIONS FOR TREATMENT OR PREVENTION OF RADIATION-INDUCED FIBROSIS” (Virginia Commonwealth University Intellectual Property …, priority 2007, published 2009).

Assays:
CTGF, fibronectin = experiment: Western blot of HFL-1 cells treated with TGF-β1 and simvastatin; assay type: cell-based, human; conditions: TGF-β1 plus simvastatin, three days, FIG. 7B
Method: Cell Culture and Treatment. Normal human fetal lung fibroblasts (HFL-1) were purchased from the American Type Culture Collection (ATCC Number: CCL-153) and cultured in Ham's F12K medium (American Type Culture Collection) supplemented with 2 mM L-glutamine adjusted to contain 1.5 g/L sodium bicarbonate and 10% fetal bovine serum. Cells were maintained in humidified 5% CO2 at 37° C. Human dermal fibroblasts (HDF), derived from the dermis of normal human adult skin, were purchased from Invitrogen, Inc. and cultured in Medium-106 (Invitrogen, Inc., Catalogue No. M-106-500) containing LSGS Kit (Invitrogen, Inc., Catalogue No. S-003-K) prior to use. […]
Harvesting Culture Media and Cell Lystates. For analysis of extracellular CTGF, fibronectin, and α-tubulin, cell culture media was collected, centrifuged to remove cellular debris, aliquoted, and frozen at −70° C. until ready for use. […]
Western blot analysis of HFL-1 whole cell proteins. […] After washing the blot, the antibodies were detected by the enhanced chemiluminescence method (PerkinElmer Life Sciences Inc.).
The separated proteins were then transferred to nitrocellulose, and Western immunoblotting was performed with antibodies specific for CTGF, fibronectin, and α-tubulin. […] As a control for protein loading, α-tubulin expression in HFL-1 cells was also determined.

[1] = system: CTGF, fibronectin (FN), collagen type IV (Col IV) mRNA; experiment: RT-PCR of TGF-β1-induced mRNA expression in HFL-1 cells treated with simvastatin; assay type: cell-based, human; conditions: 10 ng/ml TGF-β1 for 20 hours, FIG. 7A
Method: Cell Culture and Treatment. Normal human fetal lung fibroblasts (HFL-1) were purchased from the American Type Culture Collection (ATCC Number: CCL-153) and cultured in Ham's F12K medium (American Type Culture Collection) supplemented with 2 mM L-glutamine adjusted to contain 1.5 g/L sodium bicarbonate and 10% fetal bovine serum. Cells were maintained in humidified 5% CO2 at 37° C. Human dermal fibroblasts (HDF), derived from the dermis of normal human adult skin, were purchased from Invitrogen, Inc. and cultured in Medium-106 (Invitrogen, Inc., Catalogue No. M-106-500) containing LSGS Kit (Invitrogen, Inc., Catalogue No. […]) prior to use. After reaching 75-80% confluence, the medium was changed to serum free medium (SFM) for irradiation with different dose 1Gy, 2.5Gy, 5Gy, 7.5Gy and 10 Gy by using ^137Se. Alternatively, cells were treated with 5 ng/ml TGF-β1 (Sigma-Aldrich, Inc., Catalogue No. T7039) to stimulate CTGF production. The cells were then kept for 3 days in humidified 5% CO2 at 37° C. and subjected to Western immunoblot.^1 ^1What are the culture conditions (e.g., media) for M12 cells used in FIG. 3? RT-PCR analysis of CTGF, COL-IV, FN and hβ2M. […] The ability of statins to inhibit TGF-β1-mediated induction of CTGF, fibronectin, and collagen type IV was assessed in HFL-1 cells. […]

In the case of `CCC(C)(C)C(=O)O[C@H]1C[C@@H](C)C=C2C=C[C@H](C)[C@H](CC[C@@H]3C[C@@H](O)CC(=O)O3)[C@H]21` [simvastatin, 2,2-dimethyl-butanoic acid(1S,3R,7S,8S,8aR)-1,2,3,7,8,8a-hexahydro-3,7-dimethyl-8-[2-[(2R,4R)-tetrahydro-4-hydroxy-6-oxo-2H-pyran-2-yl]ethyl]-1-naphthalenylester], the fibronectin protein expression (CTGF, fibronectin) is reported as “decrease in protein expression or fibronectin”, the “CTGF, FN, and Col IV mRNA expression” value ([1]; 0.1 μM simvastatin) is reported as “reduction in CTGF, FN, and Col IV mRNA expression” and the “CTGF, FN, and Col IV mRNA expression” value ([1]; increasing concentration of simvastatin) is reported as “reduction in CTGF, FN, and Col IV mRNA expression became more pronounced”.
